Data taken from ChEMBL document CHEMBL3044539, “Fungichromin: a substance from Streptomyces padanus with inhibitory effects on Rhizoctonia solani” (2003).
Values after ≈ are worked out from the molar mass of the structure shown. Active and inactive are the calls of the source. No cut-off for these calls is given here.

Legend:
Rhizoctonia solani [1] = assay: Antifungal activity against Rhizoctonia solani AG-4 RST-04 assessed as mycelial growth inhibition after 2 days; type: functional; details: AG-4 RST-04, 48 h
Rhizoctonia solani [2] = assay: Antifungal activity against Rhizoctonia solani AG-4 RST-04 assessed as mycelial growth inhibition at 80 to 120 ug/ml after 2 days; type: functional, organism-based

CCCCC[C@@H](O)[C@H]1C(=O)O[C@H](C)[C@@H](O)/C=C/C=C/C=C/C=C/C=C(\C)[C@@H](O)[C@H](O)[C@H](O)C[C@H](O)C[C@H](O)C[C@H](O)C[C@H](O)C[C@@H]1O [PENTAMYCIN]
MIC (Rhizoctonia solani [1]): 72 µg/mL (≈ 107 µM) | growth inhibition (GI) (Rhizoctonia solani [2]): Active
